Measurements reported in ChEMBL document CHEMBL3045244, “Design and synthesis of novel piperazine unit condensed 2,6-diarylpiperidin-4-one derivatives as antituberculosis and antimicrobial agents” (2012).
Values after ≈ are worked out from the molar mass of the structure shown. Active and inactive are the calls of the source. The rule behind the calls is not given here.

Experiments:
Escherichia coli = assay: Antibacterial activity against Escherichia coli ATCC 25840 after 24 hr by two-fold serial dilution method; format: functional; conditions: ATCC 25840, 24 h
[1] = tested on: Mycobacterium tuberculosis; assay: Ratio of isoniazid MIC to compound MIC for Mycobacterium tuberculosis H37Rv ATCC 27294; format: functional
Rhizopus = assay: Antifungal activity against Rhizopus sp. ATCC 2920 after 72 to 96 hr by two-fold serial dilution method; format: functional
Aspergillus niger [2] = assay: Antifungal activity against Aspergillus niger ATCC 591 after 72 to 96 hr by two-fold serial dilution method; format: functional
Staphylococcus aureus [3] = assay: Antibacterial activity against Staphylococcus aureus ATCC 25833 after 24 hr by two-fold serial dilution method; format: functional; conditions: ATCC 25833, 24 h
Salmonella typhi [4] = assay: Antibacterial activity against Salmonella enterica subsp. enterica serovar Typhi ATCC 24930 after 24 hr by two-fold serial dilution method; format: functional; conditions: ATCC 24930, 24 h
Klebsiella pneumoniae [5] = assay: Antibacterial activity against Klebsiella pneumoniae ATCC 15499 after 24 hr by two-fold serial dilution method; format: functional; conditions: ATCC 15499, 24 h
Aspergillus flavus [6] = assay: Antifungal activity against Aspergillus flavus ATCC 470 after 72 to 96 hr by two-fold serial dilution method; format: functional
[7] = tested on: Mycobacterium tuberculosis; assay: Ratio of rifampicin MIC to compound MIC for Mycobacterium tuberculosis H37Rv ATCC 27294; format: functional
Bacillus subtilis [8] = assay: Antibacterial activity against Bacillus subtilis ATCC 461 after 24 hr by two-fold serial dilution method; format: functional; conditions: ATCC 461, 24 h
Cryptococcus neoformans = assay: Antifungal activity against Cryptococcus neoformans ATCC 3315 after 72 to 96 hr by two-fold serial dilution method; format: functional
[9] = tested on: Mycobacterium tuberculosis; assay: Antituberculosis activity against Mycobacterium tuberculosis H37Rv ATCC 27294 after 21 days by BACTEC based radiometric respiratory technique; format: functional; conditions: H37Rv ATCC 27294, 504 h
Candida albicans [10] = assay: Antifungal activity against Candida albicans ATCC 3130 at 200 ug/ml after 72 to 96 hr by two-fold serial dilution method; format: functional, organism-based
Candida albicans [11] = assay: Antifungal activity against Candida albicans ATCC 3130 after 72 to 96 hr by two-fold serial dilution method; format: functional
Salmonella typhi [12] = assay: Antibacterial activity against Salmonella enterica subsp. enterica serovar Typhi ATCC 24930 at 200 ug/ml after 24 hr by two-fold serial dilution method; format: functional, organism-based
Aspergillus flavus [13] = assay: Antifungal activity against Aspergillus flavus ATCC 470 at 200 ug/ml after 72 to 96 hr by two-fold serial dilution method; format: functional, organism-based
Bacillus subtilis [14] = assay: Antibacterial activity against Bacillus subtilis ATCC 461 at 200 ug/ml after 24 hr by two-fold serial dilution method; format: functional, organism-based
Staphylococcus aureus [15] = assay: Antibacterial activity against Staphylococcus aureus ATCC 25833 at 200 ug/ml after 24 hr by two-fold serial dilution method; format: functional, organism-based
Aspergillus niger [16] = assay: Antifungal activity against Aspergillus niger ATCC 591 at 200 ug/ml after 72 to 96 hr by two-fold serial dilution method; format: functional, organism-based
Klebsiella pneumoniae [17] = assay: Antibacterial activity against Klebsiella pneumoniae ATCC 15499 at 200 ug/ml after 24 hr by two-fold serial dilution method; format: functional, organism-based

Compound | MIC (Escherichia coli) [µg/mL] | Ratio [1] | MIC (Rhizopus) [µg/mL] | MIC (Aspergillus niger [2]) [µg/mL] | MIC (Staphylococcus aureus [3]) [µg/mL] | MIC (Salmonella typhi [4]) [µg/mL] | MIC (Klebsiella pneumoniae [5]) [µg/mL] | MIC (Aspergillus flavus [6]) [µg/mL] | Ratio [7] | MIC (Bacillus subtilis [8]) [µg/mL] | MIC (Cryptococcus neoformans) [µg/mL] | MIC [9] [µg/mL] | MIC (Candida albicans [11]) [µg/mL] | also measured
CCOC(=O)N1CCN(CC(=O)N2C(c3ccc(OC)cc3)C(C)C(=O)C(C)C2c2ccc(OC)cc2)CC1 (centres undefined) | 200 (≈ 372 µM) | 1.56 | 50 (≈ 93 µM) | 100 (≈ 186 µM) | 100 (≈ 186 µM) | 100 (≈ 186 µM) | 100 (≈ 186 µM) | 100 (≈ 186 µM) | 200 | 50 (≈ 93 µM) | 200 (≈ 372 µM) | 16 (≈ 29.8 µM) | – | –
CCOC(=O)N1CCN(CC(=O)N2C(c3ccccc3)CC(=O)C(C)C2c2ccccc2)CC1 (centres undefined) | 50 (≈ 108 µM) | – | 200 (≈ 431 µM) | 100 (≈ 216 µM) | 100 (≈ 216 µM) | 100 (≈ 216 µM) | 200 (≈ 431 µM) | 200 (≈ 431 µM) | – | 50 (≈ 108 µM) | 50 (≈ 108 µM) | > 256 | – | Activity (Candida albicans [10]): inactive
CCOC(=O)N1CCN(CC(=O)N2C(c3cccc(F)c3)C(C)C(=O)C(C)C2c2cccc(F)c2)CC1 (centres undefined) | 50 (≈ 97.4 µM) | 1.56 | 12.5 (≈ 24.3 µM) | 6.25 (≈ 12.2 µM) | 6.25 (≈ 12.2 µM) | – | 100 (≈ 195 µM) | – | 200 | 12.5 (≈ 24.3 µM) | 25 (≈ 48.7 µM) | 16 (≈ 31.2 µM) | 100 (≈ 195 µM) | Activity (Aspergillus flavus [6]): inactive; Activity (Salmonella typhi [12]): inactive
CCOC(=O)N1CCN(CC(=O)N2C(c3ccc(F)cc3)CC(=O)C(C)C2c2ccc(F)cc2)CC1 (centres undefined) | 100 (≈ 200 µM) | – | 100 (≈ 200 µM) | 100 (≈ 200 µM) | 50 (≈ 100 µM) | 25 (≈ 50 µM) | 12.5 (≈ 25 µM) | 25 (≈ 50 µM) | – | 25 (≈ 50 µM) | 25 (≈ 50 µM) | > 256 | 25 (≈ 50 µM) | –
CO[C@H]1/C=C/O[C@@]2(C)Oc3c(C)c(O)c4c(O)c(c(/C=N/N5CCN(C)CC5)c(O)c4c3C2=O)NC(=O)/C(C)=C\C=C\[C@H](C)[C@H](O)[C@@H](C)[C@@H](O)[C@@H](C)[C@H](OC(C)=O)[C@@H]1C [RIFAMPIN] | – | – | – | – | – | – | – | – | – | – | – | 32 (≈ 38.9 µM) | – | –
C[C@@H]1[C@H](O)[C@@H](C)/C=C/C=C/C=C/C=C/C=C/C=C/C=C/[C@H](O[C@@H]2O[C@H](C)[C@@H](O)[C@H](N)[C@@H]2O)C[C@@H]2O[C@](O)(C[C@@H](O)C[C@@H](O)[C@H](O)CC[C@@H](O)C[C@@H](O)CC(=O)O[C@H]1C)C[C@H](O)[C@H]2C(=O)O [AMPHOTERICIN B] | – | – | 25 (≈ 27.1 µM) | 50 (≈ 54.1 µM) | – | – | – | 50 (≈ 54.1 µM) | – | – | 25 (≈ 27.1 µM) | – | 25 (≈ 27.1 µM) | –
NNC(=O)c1ccncc1 [ISONIAZID] | – | – | – | – | – | – | – | – | – | – | – | 0.25 (≈ 1.82 µM) | – | –
CCOC(=O)N1CCN(CC(=O)N2C(c3ccc(Cl)cc3)C(C)C(=O)C(C)C2c2ccc(Cl)cc2)CC1 (centres undefined) | 100 (≈ 183 µM) | 1.56 | 25 (≈ 45.7 µM) | 50 (≈ 91.5 µM) | 50 (≈ 91.5 µM) | 25 (≈ 45.7 µM) | 50 (≈ 91.5 µM) | – | 200 | 50 (≈ 91.5 µM) | 200 (≈ 366 µM) | 16 (≈ 29.3 µM) | 100 (≈ 183 µM) | Activity (Aspergillus flavus [13]): inactive
CCOC(=O)N1CCN(CC(=O)N2C(c3ccccc3)C(C)C(=O)C(C)C2c2ccccc2)CC1 (centres undefined) | 25 (≈ 52.3 µM) | – | 100 (≈ 209 µM) | 100 (≈ 209 µM) | 200 (≈ 419 µM) | – | 50 (≈ 105 µM) | 100 (≈ 209 µM) | – | – | 25 (≈ 52.3 µM) | – | 100 (≈ 209 µM) | Activity (Bacillus subtilis [14]): inactive
CCOC(=O)N1CCN(CC(=O)N2C(c3ccc(F)cc3)CC(=O)C(CC)C2c2ccc(F)cc2)CC1 (centres undefined) | 12.5 (≈ 24.3 µM) | 0.39 | 12.5 (≈ 24.3 µM) | 12.5 (≈ 24.3 µM) | 100 (≈ 195 µM) | 50 (≈ 97.4 µM) | 12.5 (≈ 24.3 µM) | 100 (≈ 195 µM) | 50 | 100 (≈ 195 µM) | 100 (≈ 195 µM) | 64 (≈ 125 µM) | 50 (≈ 97.4 µM) | –
CCOC(=O)N1CCN(CC(=O)N2C(c3cccc(F)c3)CC(=O)C(C)C2c2cccc(F)c2)CC1 (centres undefined) | 6.25 (≈ 12.5 µM) | – | 50 (≈ 100 µM) | 25 (≈ 50 µM) | 50 (≈ 100 µM) | – | 6.25 (≈ 12.5 µM) | 100 (≈ 200 µM) | – | 100 (≈ 200 µM) | 12.5 (≈ 25 µM) | > 256 | 6.25 (≈ 12.5 µM) | Activity (Salmonella typhi [12]): inactive
CCOC(=O)N1CCN(CC(=O)N2C(c3ccc(C)cc3)CC(=O)C(C)C2c2ccc(C)cc2)CC1 (centres undefined) | 50 (≈ 102 µM) | – | 200 (≈ 407 µM) | 50 (≈ 102 µM) | – | 200 (≈ 407 µM) | 100 (≈ 203 µM) | 200 (≈ 407 µM) | – | 100 (≈ 203 µM) | 50 (≈ 102 µM) | > 256 | 200 (≈ 407 µM) | Activity (Staphylococcus aureus [15]): inactive
CC1(C)S[C@@H]2[C@H](NC(=O)Cc3ccccc3)C(=O)N2[C@H]1C(=O)O [PENICILLIN G] | 12.5 (≈ 37.4 µM) | – | – | – | 50 (≈ 150 µM) | 50 (≈ 150 µM) | 25 (≈ 74.8 µM) | – | – | 12.5 (≈ 37.4 µM) | – | – | – | –
CCOC(=O)N1CCN(CC(=O)N2C(c3ccccc3)CC(=O)C(CC)C2c2ccccc2)CC1 (centres undefined) | 25 (≈ 52.3 µM) | 1.56 | 100 (≈ 209 µM) | – | 200 (≈ 419 µM) | 100 (≈ 209 µM) | – | 12.5 (≈ 26.2 µM) | 200 | 50 (≈ 105 µM) | 25 (≈ 52.3 µM) | 16 (≈ 33.5 µM) | 12.5 (≈ 26.2 µM) | Activity (Aspergillus niger [16]): inactive; Activity (Klebsiella pneumoniae [17]): inactive
